In PubChem BioAssay AID248 (DTP/NCI, 2004) one finds T/C data, which are given here for 20 compounds.

Where “and” joins values, the source holds several entries; their conditions need not be identical. Identical values can stand only once. Toxic doses and inconclusive results are not listed.

In this experiment the test system is L1210 leukemia ip in BDF1 mice, survival T/C. Kind of experiment: NCI In Vivo Anticancer Drug Screen. Data for tumor model L1210 Leukemia (intraperitoneal) in B6D2F1 (BDF1) mice. The conditions noted are these: endpoint: mean survival time, higher = longer survival. The gist of the method:
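Tumor was transplanted into mice, which were then dosed with test compound or vehicle alone. Survival was recorded for each group, and the treated figure was expressed relative to the control figure.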

[1] abbreviates: dose: 100.0 mg/kg/injection, schedule: Q04DX003 (ip), vehicle: Klucel (hydroxypropylcellulose) (HPC).
The mark [2] stands for this setting: dose: 200.0 mg/kg/injection, schedule: Q04DX003 (ip), vehicle: Klucel (hydroxypropylcellulose) (HPC).
[3] abbreviates: dose: 400.0 mg/kg/injection, schedule: Q04DX003 (ip), vehicle: Klucel (hydroxypropylcellulose) (HPC).
The mark [4] stands for this setting: dose: 100.0 mg/kg/injection, schedule: Q04DX003 (ip), vehicle: saline.
Setting [5] is: dose: 200.0 mg/kg/injection, schedule: Q04DX003 (ip), vehicle: saline.
The mark [6] stands for this setting: dose: 100.0 mg/kg/injection, schedule: Q04DX003 (ip), vehicle: saline with Tween-80.
[7] abbreviates: dose: 200.0 mg/kg/injection, schedule: Q04DX003 (ip), vehicle: saline with Tween-80.
[8] abbreviates: dose: 400.0 mg/kg/injection, schedule: Q04DX003 (ip), vehicle: saline with Tween-80.
The mark [9] stands for this setting: dose: 100.0 mg/kg/injection, schedule: Q01DX009 (ip), vehicle: saline with Tween-80.
The mark [10] stands for this setting: dose: 200.0 mg/kg/injection, schedule: Q01DX009 (ip), vehicle: saline with Tween-80.
Setting [11] is: dose: 400.0 mg/kg/injection, schedule: Q01DX009 (ip), vehicle: saline with Tween-80.
[12] abbreviates: dose: 100.0 mg/kg/injection, schedule: Q01DX001 (ip), vehicle: other.
The mark [13] stands for this setting: dose: 200.0 mg/kg/injection, schedule: Q01DX001 (ip), vehicle: other.
The mark [14] stands for this setting: dose: 400.0 mg/kg/injection, schedule: Q01DX001 (ip), vehicle: other.

With `CC(C)C1CC(C)(C)c2cc3c(cc2O1)C(C)(C)CC(C(C)C)O3` (configuration not stated), the T/C is, setting by setting: under setting [1], 91 % of control; under setting [2], 106 % of control; under setting [3], 96 % of control.

Regarding `CCCCCCOC(=O)/C=C(/C)OCCCCCC`, the T/C (dose: 100.0 mg/kg/injection, schedule: Q01DX009 (ip), vehicle: saline) was 97 % of control; the T/C under setting [4] was 94 % of control; the T/C (dose: 200.0 mg/kg/injection, schedule: Q01DX009 (ip), vehicle: saline) is 95 % of control; the T/C under setting [5] was 96 % of control; the T/C (dose: 400.0 mg/kg/injection, schedule: Q01DX009 (ip), vehicle: saline) was 92 % of control.

In the case of `Cc1ccc([N+](=O)[O-])cc1NC(=O)Nc1nccs1`, the T/C is 104 % of control (dose: 100.0 mg/kg/injection, schedule: Q01DX009 (ip), vehicle: Klucel (hydroxypropylcellulose) (HPC)); 101 % of control (dose: 200.0 mg/kg/injection, schedule: Q01DX009 (ip), vehicle: Klucel (hydroxypropylcellulose) (HPC)); 102 % of control (dose: 400.0 mg/kg/injection, schedule: Q01DX009 (ip), vehicle: Klucel (hydroxypropylcellulose) (HPC)).

For `COc1ccc(OC)c2[nH]c(=O)c(-c3ccccc3)nc12`, the T/C is, setting by setting: under setting [6], 97 % of control; under setting [7], 95 % of control; under setting [8], 91 % of control.

As for `COc1ccc(Cc2nc3ccc(Cl)cc3[nH]2)cc1`, the T/C by setting is: (dose: 100.0 mg/kg/injection, schedule: Q04DX003 (ip), vehicle: other) 101 % of control; (dose: 200.0 mg/kg/injection, schedule: Q04DX003 (ip), vehicle: other) 98 % of control; (dose: 400.0 mg/kg/injection, schedule: Q04DX003 (ip), vehicle: other) 98 % of control.

As to `O=NN1CCCCCC1C(=O)O` (configuration not stated), the T/C was 108 % of control (dose: 100.0 mg/kg/injection, schedule: Q01DX001 (ip), vehicle: saline) and 102 % of control (dose: 200.0 mg/kg/injection, schedule: Q01DX001 (ip), vehicle: saline).

Consider `NC(=S)NN=C1CSSC1`, for which the T/C runs as follows: (dose: 1.56 mg/kg/injection, schedule: Q01DX009 (ip), vehicle: water) 99 % of control; (dose: 3.12 mg/kg/injection, schedule: Q01DX009 (ip), vehicle: water) 96 % of control; (dose: 6.25 mg/kg/injection, schedule: Q01DX009 (ip), vehicle: water) 99 % of control; (dose: 12.5 mg/kg/injection, schedule: Q01DX009 (ip), vehicle: water) 103 % of control; (dose: 12.5 mg/kg/injection, schedule: Q04DX003 (ip), vehicle: water) 95 % of control; (dose: 25.0 mg/kg/injection, schedule: Q01DX009 (ip), vehicle: water) 103 % of control.

For `O=C(Nc1cccc(Cl)c1)OCC#CCN1CCCC1`, the T/C by setting is: (dose: 5.0 mg/kg/injection, schedule: Q01DX001 (ip), vehicle: saline) 105 % of control; (dose: 9.0 mg/kg/injection, schedule: Q01DX001 (ip), vehicle: saline) 95 % of control and 101 % of control; (dose: 10.0 mg/kg/injection, schedule: Q01DX001 (ip), vehicle: saline) 105 % of control; (dose: 13.0 mg/kg/injection, schedule: Q01DX001 (ip), vehicle: saline) 97 % of control and 104 % of control; (dose: 20.0 mg/kg/injection, schedule: Q01DX001 (ip), vehicle: saline) 98 % of control and 101 % of control; (dose: 30.0 mg/kg/injection, schedule: Q01DX001 (ip), vehicle: saline) 98 % of control and 101 % of control. The T/C reads like this: (dose: 40.0 mg/kg/injection, schedule: Q01DX001 (ip), vehicle: saline) 101 % of control; (dose: 80.0 mg/kg/injection, schedule: Q01DX001 (ip), vehicle: saline) 111 % of control.

For the compound `CCCCCCCCCCCCCCCC[n+]1ccc(/C=C/c2ccccc2)cc1`, the T/C is, setting by setting: (dose: 2.5 mg/kg/injection, schedule: Q01DX001 (ip), vehicle: carboxymethylcellulose (CMC)) 116 % of control; (dose: 5.0 mg/kg/injection, schedule: Q01DX001 (ip), vehicle: carboxymethylcellulose (CMC)) 121 % of control; (dose: 10.0 mg/kg/injection, schedule: Q01DX001 (ip), vehicle: carboxymethylcellulose (CMC)) 116 % of control.

Regarding `O=S(=O)(Nc1ccc2c3c(cccc13)CC2)c1ccccc1`, the T/C is 92 % of control under setting [9], 94 % of control under setting [10] and 103 % of control under setting [11].

For the compound `CC(C)OC(=S)SCC(=O)O`, the T/C under setting [6] is 97 % of control, the T/C under setting [7] was 93 % of control and the T/C under setting [8] is 93 % of control.

As for `S=P(N1CC1)(N1CC1)N1CC1.[Cl-].[Cl-].[NH2-].[NH2-].[Pt+4]`, the T/C runs as follows: (dose: 1.8 mg/kg/injection, schedule: Q01DX009 (ip), vehicle: saline) 111 % of control and 103 % of control and 101 % of control; (dose: 2.7 mg/kg/injection, schedule: Q01DX009 (ip), vehicle: saline) 111 % of control and 116 % of control; (dose: 3.13 mg/kg/injection, schedule: Q01DX009 (ip), vehicle: Klucel (hydroxypropylcellulose) (HPC)) 150 % of control and 152 % of control; (dose: 4.1 mg/kg/injection, schedule: Q01DX009 (ip), vehicle: saline) 164 % of control [middle of 5 runs]; (dose: 6.25 mg/kg/injection, schedule: Q01DX009 (ip), vehicle: Klucel (hydroxypropylcellulose) (HPC)) 211 % of control and 166 % of control and 227 % of control; (dose: 6.25 mg/kg/injection, schedule: Q01DX009 (ip), vehicle: saline) 233 % of control [middle of 4 runs]. Moreover, the T/C is 200 % of control and 277 % of control (dose: 9.3 mg/kg/injection, schedule: Q01DX009 (ip), vehicle: saline); 105 % of control and 92 % of control and 91 % of control (dose: 12.5 mg/kg/injection, schedule: Q01DX009 (ip), vehicle: Klucel (hydroxypropylcellulose) (HPC)); 98 % of control and 103 % of control (dose: 12.5 mg/kg/injection, schedule: Q01DX009 (ip), vehicle: saline).

For `O=C(c1ccccc1)c1ccc(O)c2ncccc12`, the T/C by setting is: (dose: 100.0 mg/kg/injection, schedule: Q04DX002 (ip), vehicle: Klucel (hydroxypropylcellulose) (HPC)) 102 % of control; (dose: 200.0 mg/kg/injection, schedule: Q04DX002 (ip), vehicle: Klucel (hydroxypropylcellulose) (HPC)) 102 % of control; (dose: 400.0 mg/kg/injection, schedule: Q04DX002 (ip), vehicle: Klucel (hydroxypropylcellulose) (HPC)) 98 % of control.

With `Cc1cc(C)c2[nH]c(=O)c(Br)c(C)c2c1`, the T/C is, setting by setting: under setting [12], 93 % of control; under setting [13], 98 % of control; under setting [14], 106 % of control.

Take `Clc1ccccc1C(N=Cc1ccc[nH]1)(c1ccccc1)c1ccccc1`: the T/C was 90 % of control under setting [1], 93 % of control under setting [2] and 93 % of control under setting [3].

Take `O=C(CCCC(=O)N/N=C/c1cccc2ccccc12)N/N=C/c1cccc2ccccc12`: the T/C reads like this: (dose: 50.0 mg/kg/injection, schedule: Q01DX001 (ip), vehicle: other) 93 % of control; under setting [12], 91 % of control; under setting [13], 91 % of control; under setting [14], 87 % of control.

Regarding `NCCS(=O)c1ccccc1` (configuration not stated), the T/C by setting is: under setting [4], 96 % of control; under setting [5], 96 % of control; (dose: 400.0 mg/kg/injection, schedule: Q04DX003 (ip), vehicle: saline) 113 % of control.

For `CC(=O)OCC(C)([N+](=O)[O-])[N+](=O)[O-]`, the T/C under setting [9] is 93 % of control; the T/C under setting [6] is 95 % of control; the T/C under setting [10] is 90 % of control; the T/C under setting [7] is 101 % of control; the T/C under setting [11] was 91 % of control; the T/C under setting [8] was 103 % of control.

As for `NC(=S)c1cn(C2OC(CO)C(O)C2O)c2ncncc12` (configuration not stated), the T/C was 164 % of control (dose: 100.0 mg/kg/injection, schedule: Q01DX005 (ip), vehicle: saline) and 167 % of control (dose: 200.0 mg/kg/injection, schedule: Q01DX005 (ip), vehicle: saline).

On to `CC12CCC(Cl)(CC1O)C2(C)C` (configuration not stated), for which the T/C was 102 % of control (dose: 75.0 mg/kg/injection, schedule: Q01DX001 (ip), vehicle: saline) and 97 % of control (dose: 150.0 mg/kg/injection, schedule: Q01DX001 (ip), vehicle: saline).
